Source: patent US20240287046A1, “COMPOUNDS AND RADIOLIGANDS FOR TARGETING NEUROTENSIN RECEPTOR AND USES THEREOF” (Full-Life Technologies HK Limited, priority 2022, published 2024)

System: ASPC-1 tumor
Assay: In vivo efficacy of ^225Ac therapy
Conditions: ASPC-1 tumor-bearing mice; for tumor inhibition compared to the vehicle group: single dose of 18, 37 or 74 KBq; for dose sufficient to achieve the maximal effect: single dose
Description: In vivo efficacy of the ^177Lu labeled complexes and ^225Ac labeled complexes of the present application was evaluated in ASPC-1 tumor-bearing mice. For ^177Lu therapy study, animals in each group were dosed with vehicle or 0.6 mCi activity of the radiolabeled complexes at Day 1 and Day 5, respectively. For ^225Ac therapy studies, animals in each group were administered with a single dose of vehicle, 18, 37 or 74 KBq activity of the radiolabeled complexes, respectively.
The tumor volume (V) was determined according to the equation (V=[…]×L×W×H) at different time points, where L is the longest axis and W is the perpendicular axis to L, and H is the perpendicular axis to L and W plane. Endpoint (sacrifice) criteria were defined as either when the tumor volume exceeded 1.5 cm^3, or 20% body weight loss.

| SMILES | tumor inhibition compared to the vehicle group | dose sufficient to achieve the maximal effect [KBq] |
| --- | --- | --- |
| COc1cccc(OC)c1-c1cc(C(=O)NC2(C(=O)O)C3CC4CC(C3)CC2C4)nn1-c1ccc(NC(=O)CCCN(C)CCCN(C)C(=O)CN2CCN(CC(=O)[O-])CCN(CC(=O)[O-])CCN(CC(=O)[O-])CC2)cc1C(C)C.[225Ac+3] (stereo not shown) [^225Ac—I-5] | significant tumor inhibition | 37 |
| COc1cccc(OC)c1-c1cc(C(=O)NC2(C(=O)O)C3CC4CC(C3)CC2C4)nn1-c1ccc(OCCCN(C)CCCN(C)C(=O)CN2CCN(CC(=O)[O-])CCN(CC(=O)[O-])CCN(CC(=O)[O-])CC2)cc1C(C)C.[225Ac+3] (stereo not shown) [^225Ac—I-7] | significant tumor inhibition | 37 |
